“And” between values parts separate entries of the source, which are not always exact repeats. Identical values can stand only once.
Experiments:
[1] = test system: HL-60 cell line; parameters: method as in previously determined; settings: ref previously determined, read-out: IC50, antiproliferative; cited from earlier work
[2] = biological target: T1, TOP2B-DNA covalent complex (Homo sapiens, UniProt Q02880); assay: RADAR assay, etoposide-induced TOP2B-DNA covalent complex in HEK293F cells; format: cell-based; settings: for TOP2B spot intensity: independent replicates
T1 construct: endogenous in cells; host or cells: HEK293F
T1 sequence (Q02880 2-1626 limits assumed, one chain of several): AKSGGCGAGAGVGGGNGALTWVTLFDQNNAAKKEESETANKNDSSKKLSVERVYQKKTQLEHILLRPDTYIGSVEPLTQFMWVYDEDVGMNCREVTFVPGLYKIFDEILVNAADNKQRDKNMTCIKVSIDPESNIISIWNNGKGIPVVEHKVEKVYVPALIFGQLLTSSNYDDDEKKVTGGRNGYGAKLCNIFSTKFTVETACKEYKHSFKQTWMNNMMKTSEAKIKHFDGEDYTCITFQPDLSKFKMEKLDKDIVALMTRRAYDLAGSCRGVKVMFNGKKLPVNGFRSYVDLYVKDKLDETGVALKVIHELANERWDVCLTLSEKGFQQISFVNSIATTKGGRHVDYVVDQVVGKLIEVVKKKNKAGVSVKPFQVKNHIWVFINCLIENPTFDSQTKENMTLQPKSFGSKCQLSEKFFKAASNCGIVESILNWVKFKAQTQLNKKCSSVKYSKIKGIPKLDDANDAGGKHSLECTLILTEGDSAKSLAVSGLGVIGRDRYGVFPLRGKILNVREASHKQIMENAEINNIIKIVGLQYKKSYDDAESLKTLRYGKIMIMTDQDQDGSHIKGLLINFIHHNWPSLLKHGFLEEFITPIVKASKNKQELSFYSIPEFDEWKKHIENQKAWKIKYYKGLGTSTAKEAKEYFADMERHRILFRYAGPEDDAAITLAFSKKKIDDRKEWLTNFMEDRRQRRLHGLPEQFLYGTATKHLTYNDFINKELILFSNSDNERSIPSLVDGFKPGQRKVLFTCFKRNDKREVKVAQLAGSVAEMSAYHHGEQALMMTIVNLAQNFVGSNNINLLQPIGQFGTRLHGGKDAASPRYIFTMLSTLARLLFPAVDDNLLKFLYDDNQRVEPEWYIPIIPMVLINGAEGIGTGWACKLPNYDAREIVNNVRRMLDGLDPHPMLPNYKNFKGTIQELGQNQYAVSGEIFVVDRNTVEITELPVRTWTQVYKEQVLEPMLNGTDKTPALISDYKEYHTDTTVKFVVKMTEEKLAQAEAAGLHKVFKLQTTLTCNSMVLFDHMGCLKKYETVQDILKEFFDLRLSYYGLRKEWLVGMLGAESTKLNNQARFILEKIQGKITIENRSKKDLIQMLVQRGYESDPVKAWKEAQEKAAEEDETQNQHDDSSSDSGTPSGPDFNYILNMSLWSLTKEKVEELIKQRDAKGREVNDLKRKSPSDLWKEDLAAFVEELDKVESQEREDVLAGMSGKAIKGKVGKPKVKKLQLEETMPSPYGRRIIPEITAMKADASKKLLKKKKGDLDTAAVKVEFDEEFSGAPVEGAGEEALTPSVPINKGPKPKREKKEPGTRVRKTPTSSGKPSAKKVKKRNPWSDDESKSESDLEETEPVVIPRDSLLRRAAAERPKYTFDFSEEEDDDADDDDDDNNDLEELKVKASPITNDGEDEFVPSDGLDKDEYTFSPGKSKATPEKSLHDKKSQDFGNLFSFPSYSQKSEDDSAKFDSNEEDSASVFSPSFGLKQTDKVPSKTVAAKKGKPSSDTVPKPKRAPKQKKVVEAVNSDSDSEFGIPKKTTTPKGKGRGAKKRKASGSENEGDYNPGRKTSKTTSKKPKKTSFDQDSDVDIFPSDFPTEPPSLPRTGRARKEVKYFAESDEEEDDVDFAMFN
Protocol: (§1) HEK293F cells were plated at 3 × 10^5 cells per well and grown overnight. […] Upon removal of media, cells in each well were immediately lysed with 750 µL DNAzol (Molecular Research Center, Inc.) and the DNA was precipitated by addition of 375 µL of 100% ethanol. This step was then repeated to eliminate protein aggregates. Precipitate from each sample was pelleted via centrifugation at 4 °C and max speed for 5 min. The pellets were washed twice with buffer containing 20 mM Tris pH 7.5, 1 mM EDTA pH 8.0, 50 mM NaCl, 50% EtOH, and at the end of each wash, centrifugation at 4000 × g for 2 min was repeated to isolate the DNA pellets. The pellets were washed in 75% EtOH and then collected by centrifugation at 4 °C and max speed for 5 min. The supernatant was removed via pipetting, and the remaining pellets were air dried for 5 min before 50 µL 8 mM NaOH and 0.1% Tween-20 was added to each pellet. Once no visible precipitate remained, each mixture was supplemented with 5 µL of Benzonase buffer containing 500 mM Tris pH 8.0, 10 mM MgCl2, 1/1000 Roche complete protease inhibitor cocktail (Millipore Sigma) and 40 units Benzonase (Millipore Sigma) followed by 30 to 60 min incubation at 37 °C until the pellets were fully dissolved. The DNA content from each sample was quantified on a nanodrop, and 10 µg of DNA was diluted to a final volume of 200 µL in 8 mM NaOH and 0.1% Tween. The samples were applied over the Whatman Minifold I dot blot apparatus (Cytiva) and collected on a PVDF membrane (Thermo Fisher Scientific). The membrane was washed three times with 8 mM NaOH and 0.1% Tween-20 solution prior to removal and blocking with the same wash solution containing 1 mg/mL BSA. Western blotting was carried out on an iBind (Thermo Fisher Scientific) and TOP2 proteins were detected using isoform-specific antibody against full length TOP2A (1:250 dilution; HT2A21, Inspiralis) and TOP2B (1:500 dilution; 611493, BD Biosciences) and visualized with anti-rabbit (1:1000 dilution; 926-68071, LI-COR Bio) and anti-mouse (1:1000 dilution; 926-32210, LI-COR Bio) secondary antibodies in iBind running buffer. The blots were imaged on a LI-COR Odyssey Fc and analysed using ImageStudio. Each presented data point was obtained from distinct sample.

[3] = biological target: T2, TOP2A-DNA covalent complex (Homo sapiens, UniProt P11388); assay: RADAR assay, etoposide-induced TOP2A-DNA covalent complex in HEK293F cells; format: cell-based; settings: for TOP2A spot intensity: independent replicates
T2 construct: endogenous in cells; host or cells: HEK293F
T2 sequence (P11388 whole entry, one chain of several): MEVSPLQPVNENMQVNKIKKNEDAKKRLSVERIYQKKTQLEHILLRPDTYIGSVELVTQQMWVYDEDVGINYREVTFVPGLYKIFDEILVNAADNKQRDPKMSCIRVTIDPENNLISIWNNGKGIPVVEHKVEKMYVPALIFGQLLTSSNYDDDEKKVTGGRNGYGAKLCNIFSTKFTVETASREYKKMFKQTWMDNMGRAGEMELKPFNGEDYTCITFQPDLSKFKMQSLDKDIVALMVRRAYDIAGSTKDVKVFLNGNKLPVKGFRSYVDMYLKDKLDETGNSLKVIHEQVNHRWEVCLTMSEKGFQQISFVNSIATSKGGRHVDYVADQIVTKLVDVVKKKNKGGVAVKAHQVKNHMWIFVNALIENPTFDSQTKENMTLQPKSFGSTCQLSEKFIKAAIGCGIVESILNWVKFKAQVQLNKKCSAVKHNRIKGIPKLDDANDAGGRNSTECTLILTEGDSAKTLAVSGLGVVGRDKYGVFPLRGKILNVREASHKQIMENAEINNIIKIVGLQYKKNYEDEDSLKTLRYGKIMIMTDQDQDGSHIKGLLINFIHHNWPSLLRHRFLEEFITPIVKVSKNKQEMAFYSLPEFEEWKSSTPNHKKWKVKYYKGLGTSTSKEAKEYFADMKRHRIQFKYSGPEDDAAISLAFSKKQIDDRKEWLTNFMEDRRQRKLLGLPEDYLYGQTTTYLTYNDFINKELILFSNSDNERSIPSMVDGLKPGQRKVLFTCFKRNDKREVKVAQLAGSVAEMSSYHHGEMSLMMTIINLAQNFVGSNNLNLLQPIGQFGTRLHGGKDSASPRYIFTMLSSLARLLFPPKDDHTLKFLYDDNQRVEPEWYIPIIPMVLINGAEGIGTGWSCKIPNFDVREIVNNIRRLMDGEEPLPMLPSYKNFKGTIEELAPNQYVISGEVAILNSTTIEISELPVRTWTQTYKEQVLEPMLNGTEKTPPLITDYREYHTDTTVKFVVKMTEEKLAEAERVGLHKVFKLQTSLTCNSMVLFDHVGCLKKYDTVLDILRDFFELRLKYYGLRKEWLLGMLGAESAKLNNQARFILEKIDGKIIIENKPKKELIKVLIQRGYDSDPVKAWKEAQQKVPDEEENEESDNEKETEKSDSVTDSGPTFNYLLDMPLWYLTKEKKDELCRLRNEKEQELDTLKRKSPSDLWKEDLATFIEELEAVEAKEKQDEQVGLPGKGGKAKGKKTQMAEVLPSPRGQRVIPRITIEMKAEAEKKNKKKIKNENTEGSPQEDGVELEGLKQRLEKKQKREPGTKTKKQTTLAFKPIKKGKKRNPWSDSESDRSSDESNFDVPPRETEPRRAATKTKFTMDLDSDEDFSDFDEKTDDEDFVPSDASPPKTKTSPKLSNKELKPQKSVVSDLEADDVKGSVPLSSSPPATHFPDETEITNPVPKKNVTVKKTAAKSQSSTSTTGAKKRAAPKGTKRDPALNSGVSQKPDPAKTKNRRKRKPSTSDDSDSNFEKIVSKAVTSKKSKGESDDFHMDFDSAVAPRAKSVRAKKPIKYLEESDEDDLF
Protocol: as §1

[4] = Cmpd 9 10 μM, etoposide 0, background subtracted

Row | SMILES | IC50 [1] [nM] | TOP2B spot intensity ([2]; Cmpd 9 0.1 μM + etoposide 5 μM) | TOP2B spot intensity ([2]; Cmpd 9 1 μM + etoposide 5 μM) | TOP2B spot intensity ([2]; Cmpd 9 10 μM + etoposide 5 μM) | TOP2B spot intensity [2, 4] | concentration significantly reducing TOP2B-DNA CC ([2]; etoposide-induced, HEK293F) [µM] | TOP2A spot intensity ([3]; Cmpd 9 0.1 μM + etoposide 5 μM) | TOP2A spot intensity ([3]; Cmpd 9 1 μM + etoposide 5 μM) | TOP2A spot intensity ([3]; Cmpd 9 10 μM + etoposide 5 μM) | TOP2A spot intensity [3, 4] | concentration significantly reducing TOP2A-DNA CC ([3]; etoposide-induced, HEK293F) [µM]
1 | COc1cccc2c1C(=O)c1c(O)c3c(c(O)c1C2=O)C[C@@](O)(C(C)=O)C[C@@H]3O[C@H]1C[C@H](N)[C@H](O)[C@H](C)O1 [DAU, daunorubicin, reference compound] | 15 | – | – | – | – | – | – | – | – | – | –
2 | CCCc1cc(=O)oc2c(C(=O)N3CCCc4ccccc43)c(OCCN3CCN(C)CC3)ccc12 [topobexin (9)] | – | 104.7 and 108 and 35.48 and 44.18 and 86.39 | 30.03 and 46.96 and 8.418 and 33.86 and 32.47 | 9.497 and 0.7143 and 3.351 and 13.57 and 7.34 | 0.7839 and 1.705 and 2.435 and 8.291 and 6.459 | 1 | 56.77 and 79.14 and 121.2 and 109.4 and 138 | 31.84 and 81.31 and 94.03 and 77.86 and 117.3 | 13.9 and 41.59 and 30.46 and 21.29 and 12.52 | 0.2099 and 13.4 and 11.83 and 3.115 and 7.885 | 10
